This is an account of results in a melting point compilation (Tetko et al.; mined from patent text by program, amines drawn as free bases though some values may be those of a salt).

Molecules are shown by their SMILES.

In turn, `CN1C(C(=O)Nc2cccc(F)c2)=C(O)c2ccc3ccccc3c2S1(=O)=O` returned a melting point of 278 to 279 °C.

Consider `Cn1c2cc(Cl)ccc2c2c(=O)[nH]c(-c3ccccc3)nc21`, for which the melting point is > 300 °C.

Take `COC(=O)C(C)c1ccc(OCCNC(=O)C2Cc3ccccc3N2S(=O)(=O)c2ccc(-c3cc(C(F)(F)F)ccc3Cl)cc2)cc1` (configuration not stated): the melting point fell in the range of 55 to 63 °C.

Consider `N#CC1CN1C(=O)NC(=O)c1ccco1` (configuration not stated), for which the melting point was 148 to 150 °C.

For `CC1COCc2nc3c(N)nc4cc(C=CC(=O)N5CCOCC5)ccc4c3n21` (configuration not stated), the melting point was > 250 °C.

As for `CCOCn1c(Cl)c(Cl)c(C#N)c1-c1ccc(Cl)c(Cl)c1`, the melting point fell in the range of 128 to 130 °C.

With `OCCN(Cc1ccccc1)CC1(O)CCN(CCCc2c[nH]c3ccc(-n4cnnc4)cc23)CC1`, the melting point was in the range of 75 to 78 °C.

For the molecule `CCOC(=O)CCn1nc(-c2cc(C(C)(C)C)c(O)c(C(C)(C)C)c2)c2cccnc21`, the melting point is 105 to 106 °C.

Turning to `O=C(O)c1cccc(-c2cccc3cc(Cc4cccc(C(F)(F)F)c4)oc23)c1`, the melting point is 169 to 170 °C.

As to `COCOc1cc(C(=O)O)n(Cc2ccc(C(F)(F)F)cc2Cl)n1`, the melting point is 133 to 134 °C.

Regarding `Cc1nc(-c2ccc(CCN3CCN(c4nsc5ccccc45)CC3)cc2)cs1`, the melting point is 135 to 140 °C.

Consider `N#CNC(=N)CCN1CCOC1=O`, for which the melting point is 137 to 139 °C.

Molecule `CCCCc1ncc(/C=C(\Cc2cccs2)C(=O)O)n1Cc1ccccc1OC` showed a melting point of 186 to 187 °C.

For the molecule `Cc1ccc(C2c3c(C)c(N4CCN(c5ccccn5)CC4)c(C)c(C)c3OC2(C)C)cc1` (configuration not stated), the melting point lay in the range of 190 to 191 °C.

As for `CC1Cc2ccc([Si](C)(C)C)c(S(=O)(=O)NC(C)(C)C)c2S1` (configuration not stated), the melting point lay in the range of 119 to 124 °C.

For the molecule `O=C(NC1N=C(c2ccccc2F)c2ccccc2NC1=O)c1ccccc1` (racemic), the melting point fell in the range of 243 to 244 °C.

Consider `CCCCc1cc2c(cc1/C=C/c1ccc(C(=O)O)cc1)C(C)(C)CCC2(C)C`, for which the melting point fell in the range of 192 to 194 °C.

In turn, `O=c1nc(N(Cc2ccccc2)c2ccccc2)sc2ncccc12` displayed a melting point of 137 to 138 °C.

For `COc1ccnc(CO)c1Cl`, the melting point was in the range of 103 to 105 °C.

With `CN1CCN(Cc2ccc(-c3cccc(-c4ccnc5c(C(=O)c6cccs6)cnn45)c3)cc2)CC1`, the melting point is 199 to 202 °C.

In turn, `N#CCCN1C(=O)C(O)N=C(c2ccccc2Cl)c2cc(Cl)ccc21` (configuration not stated) returned a melting point of 198 to 202 °C.

For `COc1cc(OC)c2c(=O)cc(-c3cccc(C)c3)oc2c1C1=CCN(C)CC1`, the melting point was in the range of 109 to 110 °C.

`COc1cc2c(cc1OC)N(Cc1ccccc1)C(=O)CN=C2c1cccc(C(F)(F)F)c1` registered a melting point of 175 to 178 °C.

`NC1=NC(c2ccc(C(F)(F)F)cc2)Nc2cccc(F)c21` (configuration not stated) showed a melting point of 220 to 222 °C.

`CNc1cc(NS(=O)(=O)c2ccc(F)cc2)nc(NC)n1` returned a melting point of 261 to 263 °C.

Molecule `O=C(O)COc1c(I)cc(-c2c3ccccc3cc3sc4ccccc4c23)cc1I` had a melting point of 250 to 252 °C.

In the case of `CC1(C)CC(=C(c2ccc(O)cc2)c2ccc(C#CCCC(=O)O)cc2)CC(C)(C)C1`, the melting point is 233 to 234 °C.

For the molecule `Cc1c(C(F)(F)F)nn(-c2c(Cl)cc(C(F)(F)F)cc2Cl)c1N`, the melting point lay in the range of 97 to 100 °C.

Turning to `CCOc1ccc2nc(N3CCN(c4nc(N)c5cc(OC)c(OC)cc5n4)CC3)nc-2cc1`, the melting point was > 250 °C.

`CN(C)C(=O)COc1cccc(C(F)(F)F)c1`: the melting point lay within 88.5 to 89.5 °C.

On to `CCNc1cc2ncnc(N3CCN(C(=O)Nc4ccc(Oc5ccccc5)cc4)CC3)c2cc1[N+](=O)[O-]`, for which the melting point fell in the range of 242 to 244 °C.

`CCCc1nc(Nc2cccc(C(C)C)c2)nc(NC2CCN(S(C)(=O)=O)CC2)n1` had a melting point of 80.4 to 81.8 °C.

On to `COc1cc2c(cc1OC)C(c1ccccc1OC)=NN=C(C)C2`, for which the melting point lay in the range of 119 to 121 °C.

As for `N#Cc1ccc2nc(C(=O)NCc3cccc(OCCSc4nc[nH]n4)c3)[nH]c(=O)c2c1`, the melting point lay within 195 to 198 °C.

Consider `O=[N+]([O-])c1ccc2oc(-c3sccc3CN3CCOCC3)nc2c1`, for which the melting point fell in the range of 143 to 145 °C.

The molecule `CSc1ccc(-c2nc(SC)c(C#N)c(=O)n2-c2ccc(C(C)(C)C)cc2)cc1` gave a melting point of 233 to 236 °C.

With `O=C(O)C1c2cc(F)ccc2-c2ccc(F)cc21`, the melting point lay in the range of 161 to 163 °C.

As to `Cc1ccc2c(NCc3ccc(NC(=O)C4CCN(Cc5ccc(F)c(F)c5)CC4)cc3)nc(N(C)C)nc2c1`, the melting point lay within 97 to 99 °C.

`CCn1ncc2c3onc(-c4ccc(F)cc4)c3cnc21` gave a melting point of 175 to 176 °C.

On to `Cc1cc(N)n(C)c2nc(N)nc(=O)c1-2`, for which the melting point was > 300 °C.

`O=C1Cc2cc([N+](=O)[O-])ccc2Sc2ccccc21`: the melting point was 171 to 172 °C.

As to `CC(C)=C1C(=O)N(c2cccc3c(N)cccc23)C(=O)/C1=C(\C)c1cc(-c2ccccc2)sc1C`, the melting point is 155 to 158 °C.

For the molecule `N#Cc1ccc(C=Cc2ccc(-c3ccccc3)cc2)cc1`, the melting point lay within 235 to 254 °C.

As to `CN(C)c1ccc(/C=C/c2c(Cl)cccc2Cl)cc1`, the melting point lay in the range of 96 to 97 °C.

The molecule `CCCCCCCCCCC(=O)Nc1cc(F)cc2c1OCCC21SC(=O)NC1=O` (configuration not stated) showed a melting point of 69 to 71 °C.

In turn, `CNc1cccc(-c2nc(=O)c3ccccc3s2)n1` showed a melting point of 207 to 208 °C.

With `CCOC(=O)c1oc2cc(Br)ccc2c1C`, the melting point lay within 55 to 56 °C.

In turn, `CC=C1CCC(C(=O)OCCOC(=O)C2=C(C)C(=CC)CC2)=C1C` gave a melting point of 95 to 97 °C.

The molecule `O=C(O)COc1ccc2c(c1)CCc1sc(S(=O)(=O)CCC(c3ccccc3)c3ccccc3)nc1-2` showed a melting point of 175 to 177 °C.

For `C[C@@]12CCCN1[C@@H](C(Cl)(Cl)Cl)OC2=O`, the melting point lay within 55 to 57 °C.

Molecule `[N-]=[N+]=C1C(=O)CC(c2ccccc2)CC1=O` (configuration not stated) showed a melting point of 122 to 124 °C.

Molecule `C=CCC1Oc2c(C)c(C)c(O)c(C)c2S1` (configuration not stated) yielded a melting point of 78.5 to 79.5 °C.

The molecule `CSCCSc1nc(C(C)(C)C)n[nH]1` returned a melting point of 114 to 116 °C.

In turn, `CC(=CC(=O)c1ccncc1)N(C)C` had a melting point of 88 to 89 °C.

For `CC(=O)OC1=C(c2ccc(C)cc2)Sc2cc(C)ccc2NC1=O`, the melting point lay in the range of 233 to 235 °C.

For `OC(CN1CCNC1=S)c1cccnc1` (configuration not stated), the melting point lay in the range of 200 to 202 °C.

`COc1cc(Nc2c(C#N)cnc3cc(/C=C/CCN(C)C)c(OC)cc23)c(Cl)cc1Cl` gave a melting point of 119 to 121 °C.

Molecule `O=C(NCc1cc(C(F)(F)F)cc(C(F)(F)F)c1)c1c(-c2ccccc2)c2cccnc2c(=O)n1CCCCO` displayed a melting point of 155 to 157 °C.

The molecule `O=C(CCc1ccccc1)Nc1ccc(C(=O)NN=C2C(=O)Nc3ccc(Br)cc32)cc1` showed a melting point of 326 °C.

Turning to `Cc1ccccc1OCC(O)CNC(C)COc1cccnc1C(N)=O` (configuration not stated), the melting point was in the range of 145 to 161 °C.

Regarding `OCCNc1ccc2nnn(Cc3ccc4ncccc4c3)c2n1`, the melting point fell in the range of 184 to 186 °C.

In turn, `Cn1cc(C2=C(c3c4n(c5ccccc35)CC(O)CC4)C(=O)NC2=O)c2ccccc21` (configuration not stated) yielded a melting point of 252 to 255 °C.

With `FC(F)(F)c1cccc(-c2ncc(CCl)c(C3CC3)n2)c1`, the melting point lay within 92 to 95 °C.

Consider `COc1ccc2oc(C(N)=O)c(OCc3ccccc3)c2c1`, for which the melting point lay in the range of 70 to 72 °C.

Turning to `CCOCc1nc2c(N)nc3cc(-c4cccnc4)ccc3c2n1Cc1ccc(CNS(C)(=O)=O)cc1`, the melting point is 228 to 229 °C.

For `COc1ccc(S(=O)(=O)c2c(C(C)C)cn3cccc(C)c23)cc1`, the melting point is 103 °C.

`CCOC(=O)Cc1nsc(Nc2ccc(F)c(F)c2)n1` had a melting point of 84 to 90 °C.

As to `C[C@H](NC(=O)COc1ccc2c(-c3ccccc3)nn(C)c2n1)c1ccccc1`, the melting point fell in the range of 55 to 56 °C.

The molecule `Cc1cccc(-c2ccc(-c3nnc(-c4cccc(C(=O)O)c4)o3)cc2)c1` yielded a melting point of 240 to 242 °C.

Molecule `COC(=O)c1cc(OC)c(OC)cc1NC(=O)c1sccc1S(=O)(=O)Nc1onc(C)c1Cl` yielded a melting point of 167 to 168 °C.

Molecule `CC1(C)COc2ccc(C[C@@H](NC(=O)c3cccc4c(Cl)cccc34)[C@@H](O)c3cccc(Cl)c3)cc21` (racemic) yielded a melting point of 191 to 192 °C.

As for `CC(C)c1nc(CCCO)n(Cc2ccncc2)c1Sc1cc(Cl)cc(Cl)c1`, the melting point was in the range of 106 to 107 °C.

The molecule `O=C(N1CCCC1)N1CCN(Cc2ccc3c(c2)-c2[nH]nc(-c4ccsc4)c2C3)CC1` yielded a melting point of 214 to 216 °C.

Regarding `C=CC(=O)Nc1ccc2ncnc(Nc3ccc(Oc4ccccc4)cc3)c2c1`, the melting point lay within 185 to 191 °C.

`C=C(CC(C)C)C(=O)NCC(=O)O`: the melting point fell in the range of 73 to 80 °C.

Consider `COc1cc(OCC(=O)O)c(C)cc1SCc1ccc(-c2ccc(Cl)c(Cl)c2)cc1`, for which the melting point lay within 161 to 162 °C.

Molecule `CN1c2ccc(C#CCOC3CCCCO3)cc2C(O)=C(C(=O)NCc2ccc(Cl)cc2)S1(=O)=O` (configuration not stated) registered a melting point of 148 to 149 °C.

Molecule `O=C1CC2(CCCC2)CC(=O)N1CCCCOc1cccc2c1SCCC2` gave a melting point of 69 °C.

The molecule `CCCc1nc2c(N)nc3ccccc3c2n1CCC(OCC)OCC` returned a melting point of 148 to 150 °C.

`COC(=O)CCc1cc2cc(Cl)ccc2n1S(=O)(=O)c1ccc(C(C)C)cc1`: the melting point was 90 to 94 °C.

The molecule `OC(CCCN1CCN(c2noc3ccccc23)CC1)c1ccc(F)cc1` (configuration not stated) showed a melting point of 142 to 144 °C.

`Cc1ccc2nc(C)c(C3=NNC(=O)CO3)n2c1` had a melting point of 313 °C.

With `CC(C)(C)c1cc(-c2ccc(C(=O)O)cc2)cc(C(C)(C)C)c1O`, the melting point is > 240 °C.

`O=C1NC(=S)NC1Cc1c[nH]c2ccccc12` (configuration not stated): the melting point was in the range of 206 to 210 °C.

The molecule `CC(=O)Nc1nc(C)c(CCN2CCN(C(c3ccccc3)c3ccccc3)CC2)s1` returned a melting point of 166 to 168 °C.

Turning to `NCCCCCCc1ccc(C2=NNC(=O)CC2)cc1`, the melting point is 153 to 154 °C.

With `COC1=C(Cc2ccc3ccccc3c2)C(=O)CC1`, the melting point is 70 to 71 °C.

One may read the melting point as the temperature of the solid-liquid transition.
